Data: the supplement of paper PMC7600603

Legend:
[1] = tested on: DLD1 NRF2-WT; details: 72 h; CellTiter-Glo viability
Procedure, shortened: (§1)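 Isogenic DLD1 colorectal cancer cells, either NRF2 wild-type or CRISPR gain-of-function, were grown in DMEM with 10% FBS. They were exposed in 384-well plates to library compounds at 5 concentrations spanning a 10,000-fold range. After 72 h, viability was read by CellTiter-Glo on a Pherastar FS reader and normalised to vehicle wells and 100-μM positive-control wells. EC50 and drug sensitivity score (a normalised area under the curve) came from four-parameter logistic dose-response fits.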

[2] = tested on: DLD1 NRF2-GOF; details: 72 h; CellTiter-Glo viability
Procedure, shortened: as §1

[3] = tested on: DLD1 NRF2-WT; test: drug sensitivity score (DSS) cytotoxicity (DSS score); higher = more toxic; extreme values may be limits of the assay; details: 72 h; CellTox Green cytotoxicity
Procedure, shortened: (§2)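 After growth in DMEM with 10% FBS, NRF2 wild-type and CRISPR-edited isogenic DLD1 cells were seeded in 384-well plates and given library compounds at 5 concentrations across a 10,000-fold range. Fluorescence from CellTox Green was taken on a Pherastar FS reader after 72 h and normalised against vehicle wells and 100-μM positive-control wells. From logistic dose-response fits of cytotoxicity came the TC50 and the drug sensitivity score, a normalised area under the curve.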

[4] = tested on: DLD1 NRF2-GOF; test: as above; details: 72 h; CellTox Green cytotoxicity
Procedure, shortened: as §2

[5] = tested on: DLD1 NRF2-WT; test: drug sensitivity score (DSS) viability (DSS score); higher = more sensitive; extreme values may be limits of the assay; details: 72 h; CellTiter-Glo viability
Procedure, shortened: as §1

[6] = tested on: DLD1 NRF2-GOF; test: as above; details: 72 h; CellTiter-Glo viability
Procedure, shortened: as §1

[7] = tested on: DLD1 NRF2-WT; test: TC50 cytotoxicity; higher = less toxic; details: 72 h; CellTox Green cytotoxicity
Procedure, shortened: as §2

[8] = tested on: DLD1 NRF2-GOF; test: TC50 cytotoxicity; higher = less toxic; details: 72 h; CellTox Green cytotoxicity
Procedure, shortened: as §2

| Compound | EC50 viability [1] [nM] | EC50 viability [2] [nM] | drug sensitivity score [3] | drug sensitivity score [4] | drug sensitivity score [5] | drug sensitivity score [6] | TC50 cytotoxicity [7] [nM] | TC50 cytotoxicity [8] [nM] |
| --- | --- | --- | --- | --- | --- | --- | --- | --- |
| CC(C)Oc1ccc(-c2nn([C@@H](C)c3oc4ccc(F)cc4c(=O)c3-c3cccc(F)c3)c3ncnc(N)c23)cc1F [TGR-1202] | > 2500 | > 2500 | 0 | 0 | 0 | 0 | > 2500 | > 2500 |
| COc1cccc(OCCCN)c1-c1cc(Nc2cnc(C#N)cn2)n[nH]1 [Prexasertib] | 737 | 365 | 3.8 | 3.6 | 12.1 | 13.5 | 1490 | 931 |
| Cn1c(=O)n(-c2ccc(C(C)(C)C#N)cc2)c2c3cc(-c4cnc5ccccc5c4)ccc3ncc21 [Dactolisib] | 13.2 | 26.1 | 0 | 0 | 13.9 | 9.8 | > 1000 | > 1000 |
| CCn1c(-c2nonc2N)nc2c(C#CC(C)(C)O)ncc(OC[C@H]3CCCNC3)c21 | 1500 | 2870 | 0 | 0 | 4.3 | 2.4 | > 10000 | > 10000 |
| Cn1ncc(Cl)c1-c1cc(C(=O)N[C@H](CN)Cc2ccc(F)c(F)c2)oc1Cl [Uprosertib] | > 10000 | > 10000 | 0 | 0 | 3.4 | 0 | > 10000 | > 10000 |
| O=c1[nH]c(=O)n([C@H]2C[C@H](O)[C@@H](CO)O2)cc1F [Floxuridine] | 255 | 258 | 0 | 0 | 12.2 | 11.8 | > 10000 | > 10000 |
| CCN1CCN(Cc2ccc(Nc3ncc(F)c(-c4cc(F)c5nc(C)n(C(C)C)c5c4)n3)nc2)CC1 [Abemaciclib] | 26.6 | 134 | 0 | 0 | 11.5 | 6.6 | > 2500 | > 2500 |
| Cc1cnc(Nc2ccc(OCCN3CCCC3)cc2)nc1Nc1cccc(S(=O)(=O)NC(C)(C)C)c1 [Fedratinib] | 1410 | 1890 | 3.8 | 4.3 | 9.6 | 8.2 | 2400 | 2500 |
| COc1ccc(COc2cc3oc(=O)c4cc(C(C)O)ccc4c3cc2OC)cc1 (stereo unspecified) [Palomid-529] | > 10000 | > 10000 | 0 | 0 | 0 | 0.6 | > 10000 | > 10000 |
| NCCNc1ccc(NCCN)c2c1C(=O)c1ccncc1C2=O [Pixantrone] | 1680 | 1110 | 0 | 0 | 4 | 4.9 | > 10000 | > 10000 |
| CC[C@H](Nc1ncnc2[nH]cnc12)c1nc2cccc(F)c2c(=O)n1-c1ccccc1 [Idelalisib] | > 10000 | > 10000 | 0 | 0 | 1.6 | 2 | > 10000 | > 10000 |
| CN1CCN(c2nc(C3=C(c4c[nH]c5ccccc45)C(=O)NC3=O)c3ccccc3n2)CC1 [Sotrastaurin] | > 10000 | > 10000 | 0 | 0 | 1.2 | 0 | > 10000 | > 10000 |
| C[C@]1(c2nc3c(C(N)=O)cccc3[nH]2)CCCN1 [Veliparib] | 1570 | > 10000 | 0 | 0 | 2.9 | 0 | > 10000 | > 10000 |
| COc1cccc2c1c(O)c(C(=O)N(C)c1ccc(C(F)(F)F)cc1)c(=O)n2C [Tasquinimod] | > 10000 | > 10000 | 0 | 0 | 1.8 | 1.2 | > 10000 | > 10000 |
| CCCc1cc(C)[nH]c(=O)c1CNC(=O)c1cc(-c2ccnc(N3CCN(C)CC3)c2)cc2c1cnn2C(C)C [GSK343] | > 1000 | > 1000 | 0 | 0 | 0 | 0 | > 1000 | > 1000 |
| CCN1CCN(c2ccc(Nc3cc(N(C)C(=O)Nc4c(Cl)c(OC)cc(OC)c4Cl)ncn3)cc2)CC1 [NVP-BGJ398] | > 1000 | > 1000 | 0 | 0 | 0 | 0 | > 1000 | > 1000 |
| COc1cc2ncnc(Nc3ccc(F)c(Cl)c3)c2cc1OCCCN1CCOCC1 [Gefitinib] | 2460 | 4080 | 0 | 0 | 3.7 | 1.5 | > 10000 | > 10000 |
| CCn1c(C(=O)N(C2CC2)C2CC2)cc2c3c(ncn3C)c(Nc3cc(C)n(C)n3)nc21 | 218 | 1170 | 0 | 0 | 7.2 | 7.1 | > 10000 | > 10000 |
| CC(=O)c1cc2c(o1)C(=O)c1ccccc1C2=O [Napabucasin] | 361 | 210 | 16.1 | 19.6 | 21 | 23.9 | 617 | 465 |
| CCCCC(=O)OCC(=O)[C@]1(O)Cc2c(O)c3c(c(O)c2[C@@H](O[C@H]2C[C@H](NC(=O)C(F)(F)F)[C@H](O)[C@H](C)O2)C1)C(=O)c1c(OC)cccc1C3=O [Valrubicin] | 547 | 479 | 0 | 0 | 6.8 | 8.1 | > 5000 | > 5000 |
| COc1cccc2c1C(=O)c1c(O)c3c(c(O)c1C2=O)C[C@@](O)(C(=O)CO)C[C@@H]3O[C@H]1C[C@H](N)[C@H](O)[C@H](C)O1 [Doxorubicin] | 168 | 138 | 0 | 0 | 8.1 | 9.2 | > 1000 | > 1000 |

| Compound | EC50 viability [1] [nM] | EC50 viability [2] [nM] | drug sensitivity score [3] | drug sensitivity score [4] | drug sensitivity score [5] | drug sensitivity score [6] | TC50 cytotoxicity [7] [nM] | TC50 cytotoxicity [8] [nM] |
| --- | --- | --- | --- | --- | --- | --- | --- | --- |
| C[C@@H]1COCCN1c1cc(C2([S@](C)(=N)=O)CC2)nc(-c2cc[nH]c3nccc2-3)n1 [AZD6738] | 2670 | 3030 | 0 | 0 | 7.8 | 4.5 | > 25000 | > 25000 |
| Cc1ncc(-c2ccnc(Nc3ccc(S(C)(=O)=O)cc3)n2)n1C(C)C [AZD-5438] | 1020 | 1440 | 0.5 | 1.9 | 10.8 | 8.7 | > 10000 | > 10000 |
| CN(C)C(=O)c1cc2cnc(Nc3ccc(N4CCNCC4)cn3)nc2n1C1CCCC1 [Ribociclib] | 460 | 168 | 0 | 0 | 8.2 | 6.8 | > 10000 | > 10000 |
| O=C(NC1CCNCC1)c1n[nH]cc1NC(=O)c1c(Cl)cccc1Cl [AT7519] | 169 | 256 | 0 | 0 | 20 | 17.1 | > 10000 | > 10000 |
| Nc1ncnc2c1c(-c1cccc(OCc3ccccc3)c1)cn2[C@H]1C[C@@H](CN2CCC2)C1 [NVP-AEW541] | 1770 | 3120 | 0.1 | 1.5 | 6.8 | 5 | > 10000 | > 10000 |
| C=C(c1ccc(C(=O)O)cc1)c1cc2c(cc1C)C(C)(C)CCC2(C)C [Bexarotene] | > 10000 | 1030 | 0 | 0 | 0 | 3.9 | > 10000 | > 10000 |
| O=c1ncn2nc(Sc3ccc(F)cc3F)ccc2c1-c1c(Cl)cccc1Cl [VX-745] | > 10000 | > 10000 | 0 | 0 | 1.4 | 0.2 | > 10000 | > 10000 |
| CC1(C)OCCn2c1nc1c(N3CCOCC3)nc(-c3cnc(N)nc3)nc12 [GDC-0084] | 725 | 1340 | 1.1 | 0.3 | 10.9 | 8.4 | 3650 | > 10000 |
| CC(C)(C)C[C@@H]1N[C@@H](C(=O)N[C@H]2CC[C@H](O)CC2)[C@H](c2cccc(Cl)c2F)[C@]12C(=O)Nc1cc(Cl)ccc12 | 1930 | 3610 | 0 | 0 | 4.4 | 1.5 | > 10000 | > 10000 |
| O=C(Nc1ccc(OC(F)(F)Cl)cc1)c1cnc(N2CC[C@@H](O)C2)c(-c2cc[nH]n2)c1 [NVP-ABL001] | > 1000 | > 1000 | 0 | 0 | 0.1 | 2.3 | > 1000 | > 1000 |
| COc1cccc2c1C(=O)c1c(O)c3c(c(O)c1C2=O)C[C@@](O)(/C(CO)=N/NC(=O)CCCCCN1C(=O)C=CC1=O)C[C@@H]3O[C@H]1C[C@H](N)[C@H](O)[C@H](C)O1 [Aldoxorubicin] | 137 | 149 | 0 | 0 | 8.5 | 7.6 | > 1000 | > 1000 |
| Cc1cn(-c2cc(NC(=O)c3ccc(C)c(Nc4nccc(-c5cccnc5)n4)c3)cc(C(F)(F)F)c2)cn1 [Nilotinib] | > 10000 | 983 | 0 | 0 | 2.5 | 4 | > 10000 | > 10000 |
| C=CC(=O)Nc1cccc(Nc2nc(Nc3ccc(OCCOC)cc3)ncc2F)c1 [Spebrutinib] | 82.2 | 39.6 | 0 | 0 | 3.2 | 6.5 | > 1000 | > 1000 |
| CC[C@@H]1C(=O)OC[C@@H]1Cc1cncn1C [Pilocarpine] | > 40000 | > 40000 | 0 | 0 | 0 | 0.1 | > 40000 | > 40000 |
| O=C(Nc1c[nH]nc1-c1nc2ccc(CN3CCOCC3)cc2[nH]1)NC1CC1 [AT9283] | 55.5 | 21.9 | 2.6 | 9.8 | 8.6 | 15.1 | > 1000 | 26.7 |
| COc1ncc(-c2ccc3nccc(-c4ccnnc4)c3c2)cc1NS(=O)(=O)c1ccc(F)cc1F [Omipalisib] | 7.1 | 25.3 | 0 | 0 | 18.7 | 12.6 | > 1000 | > 1000 |
| CN(C)Cc1c(C(=O)NCCOc2ccc(C(=O)NO)cc2)oc2ccccc12 [Abexinostat] | 582 | 832 | 7.5 | 0.7 | 14 | 10.4 | 1250 | > 10000 |
| COC(=O)c1ccc2c(c1)NC(=O)/C2=C(\Nc1ccc(N(C)C(=O)CN2CCN(C)CC2)cc1)c1ccccc1 [Nintedanib] | > 10000 | > 10000 | 0.5 | 0 | 0.5 | 0 | > 10000 | > 10000 |
| Cc1ccc(F)c(NC(=O)Nc2ccc(-c3cccc4[nH]nc(N)c34)cc2)c1 [Linifanib] | > 1000 | > 1000 | 0 | 0 | 0.5 | 1.1 | > 1000 | > 1000 |
| COc1cc(C)c(/C=C/C(C)=C/C=C/C(C)=C/C(=O)O)c(C)c1C [Acitretin] | 20.2 | 103 | 0 | 0 | 15.5 | 10.3 | > 10000 | > 10000 |
| Cc1cccc(-c2[nH]c(CNc3ccccc3F)nc2-c2ccc3ncnn3c2)n1 [TEW-7197] | > 2500 | > 2500 | 0 | 0 | 0 | 1.7 | > 2500 | > 2500 |
